Test results taken from PubChem BioAssay (NCI).
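These data come from cells grown in 96-well plates and exposed to compound for 48 hours at five concentrations. The concentration for full growth arrest is given as TGI.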

Legend:
Assay in all cases: NCI-60 cell line screen, 48 h
HCC-2998 colon = system: HCC-2998 colon
OVCAR-3 ovarian = system: OVCAR-3 ovarian
MCF7 breast = system: MCF7 breast
NCI-H226 lung = system: NCI-H226 lung
HOP-62 NSCLC = system: HOP-62 NSCLC
NCI/ADR-RES ovarian = system: NCI/ADR-RES ovarian
EKVX NSCLC = system: EKVX NSCLC
A549 NSCLC = system: A549 NSCLC
RXF 393 renal = system: RXF 393 renal
PC-3 prostate = system: PC-3 prostate
SNB-19 CNS = system: SNB-19 CNS
UO-31 renal = system: UO-31 renal
KM12 colon = system: KM12 colon
LOX IMVI melanoma = system: LOX IMVI melanoma
SK-MEL-5 melanoma = system: SK-MEL-5 melanoma
OVCAR-8 ovarian = system: OVCAR-8 ovarian
SF-295 CNS = system: SF-295 CNS
COLO 205 colon = system: COLO 205 colon
OVCAR-4 ovarian = system: OVCAR-4 ovarian
SK-MEL-28 melanoma = system: SK-MEL-28 melanoma
OVCAR-5 ovarian = system: OVCAR-5 ovarian
IGROV1 ovarian = system: IGROV1 ovarian
K-562 leukemia = system: K-562 leukemia
HT29 colon = system: HT29 colon
HCT-116 colon = system: HCT-116 colon
TK-10 renal = system: TK-10 renal
HS 578T breast = system: HS 578T breast
HOP-92 NSCLC = system: HOP-92 NSCLC
HCT-15 colon = system: HCT-15 colon
MDA-MB-435 = system: MDA-MB-435
BT-549 breast = system: BT-549 breast
786-0 renal = system: 786-0 renal
MDA-MB-231 breast = system: MDA-MB-231 breast
UACC-257 melanoma = system: UACC-257 melanoma
A498 renal = system: A498 renal
NCI-H522 lung = system: NCI-H522 lung
U251 CNS = system: U251 CNS
NCI-H23 lung = system: NCI-H23 lung
MALME-3M melanoma = system: MALME-3M melanoma
SF-268 CNS = system: SF-268 CNS
SK-OV-3 ovarian = system: SK-OV-3 ovarian
SF-539 CNS = system: SF-539 CNS
SW-620 colon = system: SW-620 colon
M14 melanoma = system: M14 melanoma
T-47D breast = system: T-47D breast
UACC-62 melanoma = system: UACC-62 melanoma
MOLT-4 leukemia = system: MOLT-4 leukemia
MDA-N = system: MDA-N
SN12C renal = system: SN12C renal
CCRF-CEM leukemia = system: CCRF-CEM leukemia
CAKI-1 renal = system: CAKI-1 renal
HL-60(TB) leukemia = system: HL-60(TB) leukemia
NCI-H460 lung = system: NCI-H460 lung
DU-145 prostate = system: DU-145 prostate
ACHN renal = system: ACHN renal
SK-MEL-2 melanoma = system: SK-MEL-2 melanoma
RPMI-8226 leukemia = system: RPMI-8226 leukemia

`C=C1OC(c2ccccc2NC)=NC12CCCCC2` was tested, and the TGI (HCC-2998 colon) was > 100 µM, the TGI (OVCAR-3 ovarian) was > 100 µM and the TGI (MCF7 breast) was > 100 µM. The TGI (NCI-H226 lung) was > 100 µM, the TGI (HOP-62 NSCLC) was > 100 µM and the TGI (NCI/ADR-RES ovarian) was > 100 µM. The TGI (EKVX NSCLC) was > 100 µM, the TGI (A549 NSCLC) was > 100 µM and the TGI (RXF 393 renal) was > 100 µM. For the same molecule, the TGI (PC-3 prostate) was > 100 µM, the TGI (SNB-19 CNS) was > 100 µM and the TGI (UO-31 renal) was > 100 µM. The TGI (KM12 colon) was > 100 µM, the TGI (LOX IMVI melanoma) was > 100 µM and the TGI (SK-MEL-5 melanoma) was > 100 µM. The TGI (OVCAR-8 ovarian) was > 100 µM, the TGI (SF-295 CNS) was > 100 µM and the TGI (COLO 205 colon) was > 100 µM. For the same molecule, the TGI (OVCAR-4 ovarian) was > 100 µM, the TGI (SK-MEL-28 melanoma) was > 100 µM and the TGI (OVCAR-5 ovarian) was > 100 µM. The TGI (IGROV1 ovarian) was > 100 µM, the TGI (K-562 leukemia) was > 100 µM and the TGI (HT29 colon) was > 100 µM. The TGI (HCT-116 colon) was > 100 µM, the TGI (TK-10 renal) was > 100 µM and the TGI (HS 578T breast) was > 100 µM. For the same molecule, the TGI (HOP-92 NSCLC) was > 100 µM, the TGI (HCT-15 colon) was > 100 µM and the TGI (MDA-MB-435) was > 100 µM. For the same molecule, the TGI (BT-549 breast) was > 100 µM, the TGI (786-0 renal) was > 100 µM and the TGI (MDA-MB-231 breast) was > 100 µM. The TGI (UACC-257 melanoma) was > 100 µM, the TGI (A498 renal) was > 100 µM and the TGI (NCI-H522 lung) was > 100 µM. The TGI (U251 CNS) was > 100 µM, the TGI (NCI-H23 lung) was > 100 µM and the TGI (MALME-3M melanoma) was > 100 µM. For the same molecule, the TGI (SF-268 CNS) was > 100 µM, the TGI (SK-OV-3 ovarian) was > 100 µM and the TGI (SF-539 CNS) was > 100 µM. The TGI (SW-620 colon) was > 100 µM, the TGI (M14 melanoma) was > 100 µM and the TGI (T-47D breast) was > 100 µM. For the same molecule, the TGI (UACC-62 melanoma) was > 100 µM, the TGI (MOLT-4 leukemia) was > 100 µM and the TGI (MDA-N) was > 100 µM. For the same molecule, the TGI (SN12C renal) was > 100 µM, the TGI (CCRF-CEM leukemia) was > 100 µM and the TGI (CAKI-1 renal) was > 100 µM. The TGI (HL-60(TB) leukemia) was > 100 µM, the TGI (NCI-H460 lung) was > 100 µM and the TGI (DU-145 prostate) was > 100 µM. For the same molecule, the TGI (ACHN renal) was > 100 µM.
With `Cc1cc(S(=O)(=O)/N=C(/C(=C=[N-])C#N)[n+]2ccc(N(C)C)cc2)c(SCC(=O)O)cc1Cl` the TGI (HCC-2998 colon) was > 100 µM, the TGI (OVCAR-3 ovarian) was > 100 µM and the TGI (MCF7 breast) was > 100 µM. For the same molecule, the TGI (NCI-H226 lung) was > 100 µM, the TGI (HOP-62 NSCLC) was > 100 µM and the TGI (NCI/ADR-RES ovarian) was > 100 µM. For the same molecule, the TGI (EKVX NSCLC) was > 100 µM, the TGI (A549 NSCLC) was > 100 µM and the TGI (SK-MEL-2 melanoma) was > 100 µM. For the same molecule, the TGI (RXF 393 renal) was > 100 µM, the TGI (PC-3 prostate) was > 100 µM and the TGI (SNB-19 CNS) was > 100 µM. For the same molecule, the TGI (UO-31 renal) was > 100 µM, the TGI (KM12 colon) was > 100 µM and the TGI (SK-MEL-5 melanoma) was > 100 µM. The TGI (OVCAR-8 ovarian) was > 100 µM, the TGI (SF-295 CNS) was > 100 µM and the TGI (COLO 205 colon) was > 100 µM. For the same molecule, the TGI (OVCAR-4 ovarian) was > 100 µM, the TGI (SK-MEL-28 melanoma) was > 100 µM and the TGI (OVCAR-5 ovarian) was > 100 µM. The TGI (IGROV1 ovarian) was > 100 µM, the TGI (K-562 leukemia) was > 100 µM and the TGI (HT29 colon) was > 100 µM. The TGI (HCT-116 colon) was > 100 µM, the TGI (TK-10 renal) was > 100 µM and the TGI (HS 578T breast) was > 100 µM. The TGI (HOP-92 NSCLC) was 70.4 µM, the TGI (HCT-15 colon) was > 100 µM and the TGI (MDA-MB-435) was > 100 µM. The TGI (BT-549 breast) was > 100 µM, the TGI (786-0 renal) was > 100 µM and the TGI (MDA-MB-231 breast) was > 100 µM. The TGI (UACC-257 melanoma) was > 100 µM, the TGI (A498 renal) was > 100 µM and the TGI (NCI-H522 lung) was > 100 µM. For the same molecule, the TGI (U251 CNS) was > 100 µM, the TGI (NCI-H23 lung) was > 100 µM and the TGI (MALME-3M melanoma) was 64.5 µM. For the same molecule, the TGI (SF-268 CNS) was > 100 µM, the TGI (SK-OV-3 ovarian) was > 100 µM and the TGI (SF-539 CNS) was > 100 µM. For the same molecule, the TGI (M14 melanoma) was > 100 µM, the TGI (T-47D breast) was > 100 µM and the TGI (UACC-62 melanoma) was > 100 µM. For the same molecule, the TGI (MOLT-4 leukemia) was > 100 µM, the TGI (MDA-N) was > 100 µM and the TGI (SN12C renal) was > 100 µM. The TGI (CCRF-CEM leukemia) was > 100 µM, the TGI (CAKI-1 renal) was > 100 µM and the TGI (HL-60(TB) leukemia) was > 100 µM. The TGI (RPMI-8226 leukemia) was > 100 µM, the TGI (NCI-H460 lung) was > 100 µM and the TGI (DU-145 prostate) was > 100 µM. For the same molecule, the TGI (ACHN renal) was > 100 µM.
